According to patent US20080249136A1, “Antimicrobial Composition and Method” (priority 2005, published 2008):

Assays:
[1] = system: Staphylococcus aureus ATCC #6538; assay: Efficacy (log kill) against Staphylococcus aureus, 96-well assay block; assay type: cell-based
Method: (§1) The cationic polymers are pH adjusted in the range of 6-7.5. It should be noted that the Ecopol polymers require an acidic environment for complete dissolution. Once the polymer is dissolved, NaOH can be used to bring the pH to the desired range.
(§2) The efficacy of the antimicrobial combinations against Staphylococcus aureus ATCC #6538 and Pseudomonas aeruginosa ATCC #10145 is measured. Testing is done in 96-well 1.5 ml polypropylene assay blocks using 96-well polypropylene sealing mats for covering the samples during incubation. The individual wells in the 96-well assay block are identified as follows: 12 columns numbered 1-12 across the top row of wells on the block, and 8 rows lettered A-H on the first column of the block. Columns 1 and 2 are reserved to test the activity of the biocide in buffer (pH 7.2) in the absence of the cationic polymer. Columns 11 and 12 are always reserved as control, to verify growth of the microorganism in the absence of the biocide. The preparation of the assay blocks involves the following steps in chronological order:
(§3) 1. Preparation of the biocide solution in an appropriate solvent at a concentration equal to 10 times the final concentration desired in row A; 2. Addition of predetermined amount of the stock biocide solution to each well in row A; 3. Addition of a predetermined amount of the solvent to rows B-H and wells 11A and 12A; 4. Serial dilution of the biocide, by transferring a predetermined amount of the solution from row A to row B, mixing, and repeating the transfer down all the rows. After the mixing step in row H, the transferring amount is taken out and disposed of; 5. Inoculation of the buffer and polymer solutions with the test organism. For bacteria, a 24-hour culture is used. Following the incubation period, the organism concentration in the medium is determined by reading the OD at 620 nm. This culture is used to inoculate the buffer and the polymer solution to a bacterial concentration of 1E6 cfu/ml. Fungal challenges are performed with fungal spores isolated from inoculated SDA slants. The spores are collected by swiping the slant with a sterile cotton swab and re-suspended in tryptic soy broth. Tween 80 is added to aid in spore separation and the suspension was homogenized. The spore concentration is obtained by use of a hemacytometer. This suspension is used to inoculate the buffer and the polymeric solutions to a spore concentration of 3-5E6 cfu/ml; 6. Addition of the inoculated buffer or polymer solution to each well. 7. Thorough mixing of the blends in each well; 8. Sampling for the time 0, 24 h, 48 h and 7 days reading is accomplished using a 96-well 300 μl polystyrene microplate. Tryptic Soy broth (TSB) is used for the bacterial studies and Malt (YM) broth buffered at pH 7.4 for fungal studies; 9. The microplates are incubated at 35° C. for bacteria and 30° C. for fungus, until the control samples show adequate growth; and 10. Data is recorded as the log reduction in microorganism concentration relative to the inoculum.

[2] = system: Pseudomonas aeruginosa ATCC #10145; assay: Efficacy (log kill) against Pseudomonas aeruginosa, 96-well assay block; assay type: cell-based
Method: as §1, §2, §3

Compound: ClC=CC[N+]12CN3CN(CN(C3)C1)C2.[Cl-] [CTAC, 1-(3-chloroallyl)-3,5,7-triaza-1-azoniaadamantane chloride]
- Log kill 24 h ([1]; Active Conc. 52.7 ppm): 0 log
- Log kill 48 h ([1]; Active Conc. 52.7 ppm): 0 log
- Log kill 7 days ([1]; Active Conc. 52.7 ppm): 1 log
- Log kill t0 ([1]; Active Conc. 52.7 ppm): 0 log
- Log kill 24 h ([1]; Active Conc. 79 ppm): 0 log
- Log kill 48 h ([1]; Active Conc. 79 ppm): 0 log
- Log kill 7 days ([1]; Active Conc. 79 ppm): 1 log
- Log kill t0 ([1]; Active Conc. 79 ppm): 0 log
- Log kill 24 h ([1]; Active Conc. 177.8 ppm): 0 log
- Log kill 48 h ([1]; Active Conc. 177.8 ppm): 0 log
- Log kill 7 days ([1]; Active Conc. 177.8 ppm): 4 log
- Log kill t0 ([1]; Active Conc. 177.8 ppm): 0 log
- Log kill 24 h ([1]; Active Conc. 400 ppm): 0 log
- Log kill 48 h ([1]; Active Conc. 400 ppm): 0 log
- Log kill 7 days ([1]; Active Conc. 400 ppm): 6 log
- Log kill t0 ([1]; Active Conc. 400 ppm): 0 log
- Log kill 24 h ([2]; Active Conc. 46.8 ppm): 0 log
- Log kill 48 h ([2]; Active Conc. 46.8 ppm): 0 log
- Log kill 7 days ([2]; Active Conc. 46.8 ppm): 0 log
- Log kill t0 ([2]; Active Conc. 46.8 ppm): 0 log
- Log kill 24 h ([2]; Active Conc. 158 ppm): 0 log
- Log kill 48 h ([2]; Active Conc. 158 ppm): 0.5 log
- Log kill 7 days ([2]; Active Conc. 158 ppm): 5 log
- Log kill t0 ([2]; Active Conc. 158 ppm): 0 log
- Log kill 24 h ([2]; Active Conc. 355.6 ppm): 1 log
- Log kill 48 h ([2]; Active Conc. 355.6 ppm): 4 log
- Log kill 7 days ([2]; Active Conc. 355.6 ppm): 6 log
- Log kill t0 ([2]; Active Conc. 355.6 ppm): 0 log
- Log kill 24 h ([2]; Active Conc. 800 ppm): 2.5 log
- Log kill 48 h ([2]; Active Conc. 800 ppm): 5 log
- Log kill 7 days ([2]; Active Conc. 800 ppm): 6 log
- Log kill t0 ([2]; Active Conc. 800 ppm): 0 log

Compound: Cc1ccc(S(=O)(=O)C(I)I)cc1 [DIMTS, diiodomethyl-para-tolylsulfone]
- Log kill 24 h ([1]; Active Conc. 189.7 ppm): 0 log
- Log kill 48 h ([1]; Active Conc. 189.7 ppm): 0 log
- Log kill 7 days ([1]; Active Conc. 189.7 ppm): 0 log
- Log kill t0 ([1]; Active Conc. 189.7 ppm): 0 log
- Log kill 24 h ([1]; Active Conc. 265.6 ppm): 0 log
- Log kill 48 h ([1]; Active Conc. 265.6 ppm): 0 log
- Log kill 7 days ([1]; Active Conc. 265.6 ppm): 0 log
- Log kill t0 ([1]; Active Conc. 265.6 ppm): 0 log
- Log kill 24 h ([1]; Active Conc. 1428.6 ppm): 0 log
- Log kill 48 h ([1]; Active Conc. 1428.6 ppm): 0 log
- Log kill 7 days ([1]; Active Conc. 1428.6 ppm): 2 log
- Log kill t0 ([1]; Active Conc. 1428.6 ppm): 0.5 log
- Log kill 24 h ([1]; Active Conc. 2000 ppm): 1 log
- Log kill 48 h ([1]; Active Conc. 2000 ppm): 1 log
- Log kill 7 days ([1]; Active Conc. 2000 ppm): 6 log
- Log kill t0 ([1]; Active Conc. 2000 ppm): 1 log
- Log kill 24 h ([2]; Active Conc. 414 ppm): 0 log
- Log kill 48 h ([2]; Active Conc. 414 ppm): 1 log
- Log kill 7 days ([2]; Active Conc. 414 ppm): 2 log
- Log kill t0 ([2]; Active Conc. 414 ppm): 0 log
- Log kill 24 h ([2]; Active Conc. 2000 ppm): 1 log
- Log kill 48 h ([2]; Active Conc. 2000 ppm): 1 log
- Log kill 7 days ([2]; Active Conc. 2000 ppm): 2 log
- Log kill t0 ([2]; Active Conc. 2000 ppm): 0 log

Compound: Oc1ccccc1-c1ccccc1 [OPP, ortho-phenylphenol]
- Log kill 24 h ([1]; Active Conc. 124 ppm): 2 log
- Log kill 48 h ([1]; Active Conc. 124 ppm): 2 log
- Log kill 7 days ([1]; Active Conc. 124 ppm): 6 log
- Log kill t0 ([1]; Active Conc. 124 ppm): 0 log
- Log kill 24 h ([1]; Active Conc. 182.2 ppm): 6 log
- Log kill 48 h ([1]; Active Conc. 182.2 ppm): 6 log
- Log kill 7 days ([1]; Active Conc. 182.2 ppm): 6 log
- Log kill t0 ([1]; Active Conc. 182.2 ppm): 1 log
- Log kill 24 h ([1]; Active Conc. 278.9 ppm): 3.5 log
- Log kill 48 h ([1]; Active Conc. 278.9 ppm): 3 log
- Log kill 7 days ([1]; Active Conc. 278.9 ppm): 4 log
- Log kill t0 ([1]; Active Conc. 278.9 ppm): 0.5 log
- Log kill 24 h ([1]; Active Conc. 418.4 ppm): 6 log
- Log kill 48 h ([1]; Active Conc. 418.4 ppm): 6 log
- Log kill 7 days ([1]; Active Conc. 418.4 ppm): 4 log
- Log kill t0 ([1]; Active Conc. 418.4 ppm): 6 log
- Log kill 24 h ([2]; Active Conc. 130.2 ppm): 0 log
- Log kill 48 h ([2]; Active Conc. 130.2 ppm): 1 log
- Log kill 7 days ([2]; Active Conc. 130.2 ppm): 1.5 log
- Log kill t0 ([2]; Active Conc. 130.2 ppm): 0 log
- Log kill 24 h ([2]; Active Conc. 182.2 ppm): 1.5 log
- Log kill 48 h ([2]; Active Conc. 182.2 ppm): 2.5 log
- Log kill 7 days ([2]; Active Conc. 182.2 ppm): 2.5 log
- Log kill t0 ([2]; Active Conc. 182.2 ppm): 1.5 log
- Log kill 24 h ([2]; Active Conc. 222.2 ppm): 4.5 log
- Log kill 48 h ([2]; Active Conc. 222.2 ppm): 3.5 log
- Log kill 7 days ([2]; Active Conc. 222.2 ppm): 4 log
- Log kill t0 ([2]; Active Conc. 222.2 ppm): 4 log

Compound: Oc1cc(Cl)ccc1Oc1ccc(Cl)cc1Cl [Triclosan, 2,4,4′-trichloro-2-hydroxyphenyl ether]
- contact time to achieve 3 log reduction in P. aeruginosa ([2]; 800 ppm of Triclosan): greater than 48 hours
- Log kill 24 h ([2]; Triclosan Conc. 105.3 ppm): 1 log
- Log kill 48 h ([2]; Triclosan Conc. 105.3 ppm): 1 log
- Log kill 7 days ([2]; Triclosan Conc. 105.3 ppm): 2 log
- Log kill t0 ([2]; Triclosan Conc. 105.3 ppm): 0 log
- Log kill 24 h ([2]; Triclosan Conc. 355.6 ppm): 1 log
- Log kill 48 h ([2]; Triclosan Conc. 355.6 ppm): 2 log
- Log kill 7 days ([2]; Triclosan Conc. 355.6 ppm): 2 log
- Log kill t0 ([2]; Triclosan Conc. 355.6 ppm): 1 log
- Log kill 24 h ([2]; Triclosan Conc. 800 ppm): 1 log
- Log kill 48 h ([2]; Triclosan Conc. 800 ppm): 2.5 log
- Log kill 7 days ([2]; Triclosan Conc. 800 ppm): 4 log
- Log kill t0 ([2]; Triclosan Conc. 800 ppm): 1 log
